This is an account of results in patent US20200316087A1, “NOVEL COMBINATION THERAPY FOR ANXIETY DISORDERS, EPILEPSY, AND PAIN” (priority 2017, published 2020).

Data set [1] can be described thus: Rat inverted screen test (motor impairment). The note with it: male, Sprague-Dawley, rat, in vivo.
Another data set relates to anticonvulsant efficacy. As to the kind of experiment: ED50 for anticonvulsant efficacy (model not stated). In kind it is in vivo. The note with it: Rattus norvegicus, ip, rats. The source says:
(Table 4). Using these unbound drug concentrations, the PI based on drug levels in plasma was 3 and that based upon brain drug levels was 3.8.

The next data set deals with rat E18 cortical neurons. Put plainly: Microelectrode array recording of cultured cortical neuron network. In kind it is cell-based. Conditions: 3 μM. As to the method: Meastro 12 well plates (Axion Biosystems, Atlanta, Ga.) were treated with a solution of 0.1% polyethylenimine for 2-4 hours, rinsed with sterile H2O and let dry overnight. Prior to plating of neurons, the MEAs were treated with solution of 20 μg/ml laminin for a minimum of 1 hour.
Cortices isolated from […] (MEA) were obtained from BrainBits LLC, (Springfield, Ill.) and digested enzymatically with TrypLE Express (Gibco), After 15 minutes of digestion, the tissue was mechanically dissociated with a series of sterile fire-polished glass pipettes of decreasing diameter. The dissociated neurons were plated directly onto substrate-integrated MEA plates and incubated in Nb Active1 (Brainbits LLC, Springfield, Ill.) supplemented with 5% dialyzed fetal bovine serum, 0.25% Glutamax (Gibco). Cell cultures were maintained in tissue incubator (37° C., 6% CO2) and fed twice a week by exchanging half of the medium. The experiments were performed on DIV 19-25 thus allowing partial maturation of the neurons. Prior to the experiment, the cell culture media was replaced with external buffer containing: 129 mM NaCl, 5 mM KCl, 2 mM CaCl, 1 mM […], 10 mM HEPES, 10 mM glucose. To achieve hyper-excitation the external buffer was modified by removal of magnesium or by addition of 1 mM 4aminopyridine (4-AP).
The recordings were obtained at 37° C. using Meastro System with integrated AxIS 2.3 analysis software (Axion Biosystems, Atlanta, Ga.). Channels were sampled simultaneously with a gain of 1200× and a sampling rate of 12.5 kHz/channel. On-line spike detection was done with the AXIS adaptive spike detector. For recordings, a Butterworth band-pass filter (with a high-pass cutoff of 75 Hz and low-pass cutoff of 4000 Hz) was applied along with a variable threshold spike detector set at 7× standard deviation of the rms-noise on each channel. Only wells that did show spontaneous activity (more than 0.3 Hz) on the day planned for the experiment were treated with a compound. Burst was defined as a minimum of 5 spikes occurring with an interspike interval of less than 100 ms. A minimum of one burst per minute was required for bursting analysis. Compounds were added by manual pipetting and the activity was sampled for six minutes prior and post compound addition.
The data were normalized to baseline activity and reported as mean±standard error of the mean (SEM). For single treatment a single sample t-test was used. To compare between group effects, analysis of variance (ANOVA) with Dunnett's multiple comparison test were utilized; P<0.05 was considered significant.

Another data set deals with motor performance. As to the kind of experiment: Observed motor effects / overt toxicity 4 hr after oral dosing. The note with it: for Observation (motor effects) / Number with observed motor effects: 4 hr post dosing, mice. In kind it is in vivo. The source says:
This seizure model is utilized to screen for drugs that might […] by other screening approaches. For example, the highly used anticonvulsant leviteracetam was effective in this test but not in the pentylenetetrazole assay. Adult, male mice were subjected to 6 Hz stimulation at 44 mA as originally described by Barton et al. (Epilepsy Res. 2001; 47:217-27) and conducted per protocol of the NTH Anticonvulsant Screening Program (available online from the National Institute of Neurological Disorders and Stroke—6 Hz 44 mA Psychomotor Seizure Model, Mouse). Briefly, a mouse was dosed with KRM-II-81, p.o., and 2 hr later given 6 Hz stimulation for 3 sec delivered through corneal electrodes at 44 mA and observed for the presence or absence of seizure activity. A separate group of mice was dosed with higher doses of KRM-II-81 and observed for potential deficits in motor performance and overt signs of toxicity at 4 hr post dosing.

Data set [2] relates to immobility in tail-suspension test. Put plainly: Tail-suspension assay. In kind it is in vivo. Conditions: C57Bl/6 mice. As to the method: Male, C57Bl/6 mice (Envigo, Indianapolis, Ind.) were employed in these experiments. Med Associates Inc. (Fairfax, Vt., USA), apparatus SOF-821 was utilized. The TST was an automated version of published methods in which the tail was secured to a lever on the ceiling of the chamber. The duration of immobility was recorded by a force transducer for a period of 10 min.
Imipramine was dissolved in water.

“Also recorded” adds a separate entry of the source.

`C#Cc1ccc2c(c1)C(c1ccccc1)=NCc1c(-c3cnco3)ncn1-2` [KRM-II-82, 5-(8-ethynyl-6-phenyl-4H-benzo[f]imidazo[1,5-a][1,4]diazepin-3-yl)oxazole] gave an MTD at 60 seconds in data set [1] (intraperitoneal) of 150 mg/kg.
For the molecule `C#Cc1ccc2c(c1)C(c1ccccn1)=NCc1c(-c3cnco3)ncn1-2` [KRM-II-81, 5-(8-ethynyl-6-(pyridin-2-yl)-4H-benzo[f]imidazo[1,5-a][1,4]diazepin-3-yl)oxazole], it took a dose of 121 mg/kg to reach the 50% effect level in data set [1] (ip) (ED50 at 30 min). The median effective dose (ED50) (usually the dose that gives a 50% effect, or the effect in half of the subjects) in the data set with anticonvulsant efficacy amounted to 17.3 mg/kg. For the same molecule, the frequency of bursting is recorded as 50.9±8.8 % of control in the data set on rat E18 cortical neurons (hyper-excited by 1 mM 4AP, n=6, mean±SEM); 54.8±7.1 % of control with rat E18 cortical neurons (hyper-excited by removal of magnesium, n=5, mean±SEM); “no significant effect” in the data set with rat E18 cortical neurons (normal magnesium, n=7); “no significant effect” with rat E18 cortical neurons (reduced magnesium (0.1 mM Mg++), n=4). The frequency of spiking is reported as 50.5±7.5 % of control in the data set on rat E18 cortical neurons (hyper-excited by 1 mM 4AP, n=7, mean±SEM); 62.2±3.8 % of control in the data set with rat E18 cortical neurons (hyper-excited by removal of magnesium, n=7, mean±SEM); “no significant effect” in the data set on rat E18 cortical neurons (normal magnesium external solution, n=7); “small depression of spiking” in the data set with rat E18 cortical neurons (reduced magnesium (0.1 mM Mg++), n=4, p>0.05). Further, the “loss of righting (mice affected)” value in the data set on motor performance (150 mg/kg p.o.) and with motor performance (200 mg/kg p.o.) was 1/8 in each case. Moreover, the “more severe tremor (mice affected)” value with motor performance (200 mg/kg p.o.) was 1/8. Further, the “Observation (motor effects)” value with motor performance (dose 100 mg/kg, p.o.) is reported as “Mild tremor; also recorded: tremors”; in the data set with motor performance (dose 150, p.o.), “tremor, unable to grasp”; in the data set on motor performance (dose 200, p.o.) it was “more severe tremor'; also recorded: loss of righting”. The “Number with observed motor effects” value is 0/8 with motor performance (dose 50, p.o.); 3/8 in the data set on motor performance (dose 100, p.o.); 5/8 in the data set on motor performance (dose 150, p.o.); 8/8 in the data set on motor performance (dose 200, p.o.). The “immobility in tail-suspension test” value in data set [2] (i.p., 100 mg/kg significantly greater than vehicle, 100 mg/kg) is given as “slight increase in immobility at the higher doses tested; also recorded: not active”. Besides, the “sedation-like effects” value in data set [2] (higher doses tested) was “moderate sedation-like effects”.
